Patent publication US5906920A, “Methods for the detection of ligands for retinoid X receptors” (The Salk Institute for Biological Studies, priority 1995, dated 1999)

Test system: GST-RXR197-462 interaction with in vitro translated TBP
Assay: GST pull-down RXR-TBP interaction assay in vitro
Format: binding, human
Conditions: 1.0 μM 9-cis retinoic acid in all buffers; quantitated by phosphorimaging
From the text: GST-RXR197-462 was constructed by PCR amplification of the appropriate sequences from human RXRα. The amplification products were cloned into EcoRI-BamHI digested pGEX2TK. All PCR-derived constructs were verified by sequencing. The plasmid pGEX-TBP was the kind gift of Dr. I. Verma (Salk Institute; see Kerr et al., in Nature 365:412-419 (1993)). Mammalian expression constructs expressing the ligand biding domains of human RXRα, human RARα and human TRβ have been described elsewhere (Forman et al., Cell 81:541-550 (1995)).
GST-fusion proteins were induced, solubilized and bound to glutathione beads following the manufacturer's procedures (LKB-Pharmacia). After binding to glutathione beads, 15 μl of the suspension was incubated with 1 to 2 μl of the appropriate ^35 S-labeled in vitro translated protein for 1 hour in 500 μl of NETN (20 mM Tris-HC1, pH 7.5, 100 mM KC1, 0.7 mM EDTA, 0.5% NP40, 1 mM PMSF). Following incubation, the beads were washed three times with NETN. […]
Thus GST pull-down experiments were carried out as follows. TBP was in vitro transcribed and translated as described above, and incubated with equal amounts of immobilized GST-RXR197-462 or GST-RXR-E453K/E456K) as determined by coomassie stained gels. […] Little or no interaction between TBP and GST alone is detected under these conditions.

CC1=C(/C=C/C(C)=C\C=C\C(C)=C\C(=O)O)C(C)(C)CCC1 [9-cis retinoic acid]
stimulation of the RXR-TBP interaction in vitro by addition of ligand: 3-5 fold
